Our source for the IC50 and Ki values is publication PMC7006680, “Sulfocoumarins as dual inhibitors of human carbonic anhydrase isoforms IX/XII and of human thioredoxin reductase” (Journal of Enzyme Inhibition and Medicinal Chemistry, 2020).

Experiment [1] relates to HT-1080 (human fibrosarcoma). Briefly: MTT cytotoxicity assay, HT-1080. In kind it is cell-based. A general note: Formazan colour is commonly taken as a measure of viable cells.
Method: (§1) About 2000–4000 cells per well (depending on line nature) were placed in 96-well plates and after 24 h compounds were added to the wells. Untreated cells were used as a control. The plates were incubated for 48 h, 37 °C, and 5% CO2. The number of surviving cells was determined using 3-(4,5-dimethylthiazol-2-yl)-2,5-diphenyltetrazolinium bromide (MTT). MTT-test: after incubating culture medium was removed and 200 µL fresh medium with 20 µL MTT (2 mg/mL in HBSS) was added in each well of the plate. After incubation (3 h, 37 °C, 5% CO2), the medium with MTT was removed and 200 µL DMSO were added at once to each sample. The samples were tested at 540 nm on Thermo Scientific Multiskan EX microplate photometer. The half-maximal inhibitory concentration (IC50) of each compound was calculated using Graph Pad Prism® 3.0 (GraphPad Software, La Jolla, CA).
The test system of experiment [2] is SHSY5Y (human neuroblastoma). The experiment is described as follows: MTT cytotoxicity assay, SHSY5Y. The conditions noted are these: 48 h incubation. In kind it is cell-based.
Method: as §1
Another experiment addresses T1, hCA XII (Homo sapiens, UniProt O43570).
T1 construct: made in house
Briefly: Stopped-flow CO2 hydration CA inhibition assay, hCA XII. In kind it is biochemical. The conditions noted are these: recombinant enzyme, 15 min pre-incubation.

For a further experiment, the target named is T2, hCA IX (Homo sapiens, UniProt Q16790).
T2 construct: made in house
The experiment is described as follows: Stopped-flow CO2 hydration CA inhibition assay, hCA IX. In kind it is biochemical. The settings on record: recombinant enzyme, 15 min pre-incubation.

For experiment [3], the system named is MCF-7 (breast adenocarcinoma). Briefly: MTT cytotoxicity assay, MCF-7. In kind it is cell-based, human.
Method: as §1
A further experiment addresses T3, TrxR (Homo sapiens, UniProt Q16881).
T3 sequence (Q16881 1-649): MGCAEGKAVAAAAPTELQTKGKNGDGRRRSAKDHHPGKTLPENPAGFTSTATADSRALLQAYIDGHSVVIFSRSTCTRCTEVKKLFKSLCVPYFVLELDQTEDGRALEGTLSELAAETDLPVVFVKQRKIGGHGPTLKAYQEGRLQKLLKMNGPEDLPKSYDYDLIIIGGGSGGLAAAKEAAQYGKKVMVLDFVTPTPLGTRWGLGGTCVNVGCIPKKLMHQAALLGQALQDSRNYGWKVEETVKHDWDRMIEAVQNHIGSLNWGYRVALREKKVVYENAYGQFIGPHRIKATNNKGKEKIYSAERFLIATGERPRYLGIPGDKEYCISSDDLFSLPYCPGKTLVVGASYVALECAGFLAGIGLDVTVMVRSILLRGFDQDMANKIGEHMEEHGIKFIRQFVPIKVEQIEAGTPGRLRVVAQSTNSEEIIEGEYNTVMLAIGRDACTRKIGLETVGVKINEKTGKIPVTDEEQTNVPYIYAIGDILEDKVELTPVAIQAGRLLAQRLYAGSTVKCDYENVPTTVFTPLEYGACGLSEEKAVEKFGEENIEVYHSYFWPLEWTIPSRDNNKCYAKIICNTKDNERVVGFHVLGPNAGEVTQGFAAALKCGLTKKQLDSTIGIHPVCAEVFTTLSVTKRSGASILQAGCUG
Briefly: TrxR activity by DTNB reduction assay in SHSY5Y cell lysate. In kind it is biochemical.

For another experiment, the target named is T4, hCA II (Homo sapiens, UniProt P00918).
T4 construct: made in house
Briefly: Stopped-flow CO2 hydration CA inhibition assay, hCA II. The conditions noted are these: recombinant enzyme, 15 min pre-incubation. In kind it is biochemical.

In a further experiment the target is T5, hCA I (Homo sapiens, UniProt P00915).
T5 construct: made in house
T5 sequence (P00915 whole entry): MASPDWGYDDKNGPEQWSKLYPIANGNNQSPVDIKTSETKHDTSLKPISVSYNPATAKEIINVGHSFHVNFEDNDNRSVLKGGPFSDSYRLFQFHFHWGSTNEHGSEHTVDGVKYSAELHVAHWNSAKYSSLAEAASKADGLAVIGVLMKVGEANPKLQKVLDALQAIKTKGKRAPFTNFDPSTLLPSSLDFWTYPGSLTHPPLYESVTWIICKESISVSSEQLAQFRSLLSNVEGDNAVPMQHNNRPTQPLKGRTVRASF
The experiment is described as follows: Stopped-flow CO2 hydration CA inhibition assay, hCA I. The conditions noted are these: recombinant enzyme, 15 min pre-incubation. Type of experiment: biochemical.

The mark [4] stands for this setting: Homo sapiens, HT-1080, 48 h incubation.
Setting [5] is: Homo sapiens, MCF7, 48 h incubation.

T1 sequence (O43570 25-354): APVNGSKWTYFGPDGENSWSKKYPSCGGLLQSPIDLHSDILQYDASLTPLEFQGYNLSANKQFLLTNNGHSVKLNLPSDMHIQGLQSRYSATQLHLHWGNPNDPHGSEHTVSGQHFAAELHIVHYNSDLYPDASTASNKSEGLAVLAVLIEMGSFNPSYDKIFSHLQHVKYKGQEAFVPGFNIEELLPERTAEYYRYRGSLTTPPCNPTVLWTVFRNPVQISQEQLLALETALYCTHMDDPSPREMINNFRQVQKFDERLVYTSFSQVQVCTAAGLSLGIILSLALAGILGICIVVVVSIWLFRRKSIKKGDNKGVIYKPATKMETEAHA
Method for TrxR: Determination of TrxR activity in SHSY5Y cell lysate. TrxR activity in cell lysate was measured in 96-well plates using previously described methods[27]^,[28]. For TrxR activity measurement, compounds of different concentrations were incubated with 50 µg of cell lysate and 200 µM NADPH in a volume of 100 µL of 50 mM Tris–HCl and 1 mM EDTA, pH 7.5 (TE buffer), for different time points in 96-well plates at room temperature. […] TrxR activity was calculated as a percentage of enzyme activity of that of DMSO vehicle treated sample.
Method for hCA II: (§2) An Applied Photophysics stopped-flow instrument has been used for assaying the CA catalysed CO2 hydration activity[22]. Phenol red (at a concentration of 0.2 mM) has been used as indicator, working at the absorbance maximum of 557 nm, with 20 mM Tris (pH 8.3) as buffer, and 20 mM Na2SO4 (for maintaining constant the ionic strength), following the initial rates of the CA-catalysed CO2 hydration reaction for a period of 10–100 s. The CO2 concentrations ranged from 1.7 to 17 mM for the determination of the kinetic parameters and inhibition constants. […] The uncatalysed rates were determined in the same manner and subtracted from the total observed rates. Stock solutions of inhibitor (0.1 mM) were prepared in distilled-deionised water and dilutions up to 0.005 nM were done thereafter with the assay buffer. Inhibitor and enzyme solutions were pre-incubated together for 15 min at room temperature prior to assay, in order to allow for the formation of the E–I complex. The inhibition constants were obtained by non-linear least-squares methods using PRISM 3 and the Cheng-Prusoff equation, as reported earlier, and represent the mean from at least three different determinations.
Method for hCA IX: as §2
Method for hCA XII: as §2

Broadly, the IC50 is the concentration at which inhibition is half-maximal. Low values mean higher potency, high ones lower potency. Broadly, the Ki is the equilibrium dissociation constant of an inhibitor or competing ligand from its target. `O=S1(=O)C=Cc2cc(-c3nnnn3-c3ccccc3)ccc2O1` [Compound 1c, 5-(2,2-Dioxido-1,2-benzoxathiin-6-yl)-1-phenyl-1H-tetrazole]: the half-maximal inhibitory concentration (IC50) was determined as 12.3 µM in experiment [1] (setting [4]); 18.4 µM in experiment [2] (Homo sapiens, SH-SY5Y); 101 µM in experiment [3] (setting [5]). For the same compound, the Ki on hCA XII came out at 0.0071 µM; at hCA IX it was 0.0085 µM.

Turning to `O=S1(=O)C=Cc2cc(-n3cc(-c4ccc(Cl)cc4)nn3)ccc2O1` [Compound 1a, 4-(4-Chlorophenyl)-1-(2,2-dioxido-1,2-benzoxathiin-6-yl)-1H-1,2,3-triazole], the IC50 was 11 µM in experiment [1] (setting [4]); 22 µM in experiment [2] (Homo sapiens, SH-SY5Y); 1.8 µM in experiment [3] (setting [5]). For the same compound, the Ki on hCA XII was determined as 0.0177 µM; on hCA IX, 0.0078 µM.

As to “1-(2,2-Dioxido-1,2-benzoxathiin-6-yl)-4-(4-fluorophenyl)-1H-1,2,3-triazole [Compound 1b]”, the 50% inhibitory concentration (IC50) on TrxR is 40 µM. The Ki on hCA II and on hCA I was over 10 µM in each case.

Regarding “1-(2,2-Dioxido-1,2-benzoxathiin-6-yl)-5-(4-fluorophenyl)-1H-1,2,3-triazole [Compound 1d]”, the IC50 in experiment [1] (48 h incubation) was 7.9 µM; in experiment [2] it was 18.5 µM; in experiment [3] (48 h incubation), 50 µM; on TrxR it was 125 µM. The inhibitory constant (Ki) on hCA II and at hCA I was over 10 µM each time.
